Laboratory results reported in the supplement of paper PMC10307832.

How the values were obtained:
Assay in all cases: relative viability (nuclei count vs DMSO), 5 days (fraction); higher = more cells survive
BEN = test system: BEN
Summary of the method: (§1)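 One day after seeding in 1536-well plates, lung cancer cell lines were dosed by pin tool. Dosing was either single-drug or a fixed anchor-drug dose plus five library-drug doses (not always all listed) in √10 steps. After 5 days, nuclei were stained in one fix-and-stain step and counted on 4× images, and relative viability is the nuclei count of treated wells over that of vehicle wells, given as the median of duplicate plates.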

EPLC-272H = test system: EPLC-272H
Summary of the method: as §1

HCC-827 = test system: HCC-827
Summary of the method: as §1

HOP-62 = test system: HOP-62
Summary of the method: as §1

LU99A = test system: LU99A
Summary of the method: as §1

NCI-H1355 = test system: NCI-H1355
Summary of the method: as §1

NCI-H1666 = test system: NCI-H1666
Summary of the method: as §1

NCI-H1792 = test system: NCI-H1792
Summary of the method: as §1

NCI-H1975 = test system: NCI-H1975
Summary of the method: as §1

NCI-H2170 = test system: NCI-H2170
Summary of the method: as §1

NCI-H23 = test system: NCI-H23
Summary of the method: as §1

NCI-H2405 = test system: NCI-H2405
Summary of the method: as §1

NCI-H3122 = test system: NCI-H3122
Summary of the method: as §1

NCI-H322M = test system: NCI-H322M
Summary of the method: as §1

NCI-H520 = test system: NCI-H520
Summary of the method: as §1

NCI-H596 = test system: NCI-H596
Summary of the method: as §1

NCI-H647 = test system: NCI-H647
Summary of the method: as §1

NCI-H727 = test system: NCI-H727
Summary of the method: as §1

NCI-H838 = test system: NCI-H838
Summary of the method: as §1

PC-14 = test system: PC-14
Summary of the method: as §1

UMC-11 = test system: UMC-11
Summary of the method: as §1

`O=c1[nH]c2ccccc2n1C1CCN(CCCC(c2ccc(F)cc2)c2ccc(F)cc2)CC1` [Pimozide] + CC1(C)CCC(c2ccc(Cl)cc2)=C(CN2CCN(c3ccc(C(=O)NS(=O)(=O)c4ccc(N[C@H](CCN5CCOCC5)CSc5ccccc5)c(S(=O)(=O)C(F)(F)F)c4)cc3)CC2)C1 [Navitoclax] (partner 0.5 µM) showed a relative viability (BEN; first compound 0.08 µM) of 0.0678, a relative viability (BEN; first compound 0.253 µM) of 0.06 and a relative viability (BEN; first compound 0.8 µM) of 0.0809. It also gave a relative viability (BEN; first compound 2.53 µM) of 0.0665, a relative viability (BEN; first compound 8 µM) of 0.0584 and a relative viability (EPLC-272H; first compound 0.08 µM) of 0.979. The relative viability (EPLC-272H; first compound 0.253 µM) was 1.16, the relative viability (EPLC-272H; first compound 0.8 µM) was 1.13 and the relative viability (EPLC-272H; first compound 2.53 µM) was 1.03. It also gave a relative viability (EPLC-272H; first compound 8 µM) of 0.967, a relative viability (HCC-827; first compound 0.253 µM) of 1.03 and a relative viability (HCC-827; first compound 0.8 µM) of 0.897. It also gave a relative viability (HCC-827; first compound 2.53 µM) of 0.999, a relative viability (HCC-827; first compound 8 µM) of 0.981 and a relative viability (HOP-62; first compound 0.08 µM) of 1.11. It also gave a relative viability (HOP-62; first compound 0.253 µM) of 0.851, a relative viability (HOP-62; first compound 0.8 µM) of 0.812 and a relative viability (HOP-62; first compound 2.53 µM) of 1.03. It also gave a relative viability (HOP-62; first compound 8 µM) of 0.903, a relative viability (LU99A; first compound 0.08 µM) of 0.794 and a relative viability (LU99A; first compound 0.253 µM) of 0.772. The relative viability (LU99A; first compound 0.8 µM) was 0.716, the relative viability (LU99A; first compound 2.53 µM) was 0.875 and the relative viability (LU99A; first compound 8 µM) was 0.806. The relative viability (NCI-H1355; first compound 0.08 µM) was 0.849, the relative viability (NCI-H1355; first compound 0.253 µM) was 1.01 and the relative viability (NCI-H1355; first compound 0.8 µM) was 0.908. The relative viability (NCI-H1355; first compound 2.53 µM) was 0.959, the relative viability (NCI-H1355; first compound 8 µM) was 0.856 and the relative viability (NCI-H1666; first compound 0.08 µM) was 0.824. For the same compound, the relative viability (NCI-H1666; first compound 0.253 µM) was 1.01, the relative viability (NCI-H1666; first compound 0.8 µM) was 1.04 and the relative viability (NCI-H1666; first compound 2.53 µM) was 0.846. It also gave a relative viability (NCI-H1666; first compound 8 µM) of 0.5, a relative viability (NCI-H1792; first compound 0.08 µM) of 0.647 and a relative viability (NCI-H1792; first compound 0.253 µM) of 0.629. The relative viability (NCI-H1792; first compound 0.8 µM) was 0.619, the relative viability (NCI-H1792; first compound 2.53 µM) was 0.599 and the relative viability (NCI-H1792; first compound 8 µM) was 0.649. The relative viability (NCI-H1975; first compound 0.08 µM) was 1.22, the relative viability (NCI-H1975; first compound 0.253 µM) was 1.06 and the relative viability (NCI-H1975; first compound 0.8 µM) was 1.08. For the same compound, the relative viability (NCI-H1975; first compound 2.53 µM) was 1.16, the relative viability (NCI-H1975; first compound 8 µM) was 0.992 and the relative viability (NCI-H2170; first compound 0.08 µM) was 0.526. The relative viability (NCI-H2170; first compound 0.253 µM) was 0.703, the relative viability (NCI-H2170; first compound 0.8 µM) was 0.596 and the relative viability (NCI-H2170; first compound 2.53 µM) was 0.571. It also gave a relative viability (NCI-H2170; first compound 8 µM) of 0.585, a relative viability (NCI-H23; first compound 0.08 µM) of 0.882 and a relative viability (NCI-H23; first compound 0.253 µM) of 0.807. The relative viability (NCI-H23; first compound 0.8 µM) was 0.732, the relative viability (NCI-H23; first compound 2.53 µM) was 0.844 and the relative viability (NCI-H23; first compound 8 µM) was 0.801. It also gave a relative viability (NCI-H2405; first compound 0.08 µM) of 0.795, a relative viability (NCI-H2405; first compound 0.253 µM) of 0.716 and a relative viability (NCI-H2405; first compound 0.8 µM) of 0.89. For the same compound, the relative viability (NCI-H2405; first compound 2.53 µM) was 0.801, the relative viability (NCI-H2405; first compound 8 µM) was 0.637 and the relative viability (NCI-H3122; first compound 0.08 µM) was 0.987. For the same compound, the relative viability (NCI-H3122; first compound 0.253 µM) was 1.06, the relative viability (NCI-H3122; first compound 0.8 µM) was 1.04 and the relative viability (NCI-H3122; first compound 2.53 µM) was 0.982. It also gave a relative viability (NCI-H3122; first compound 8 µM) of 0.957, a relative viability (NCI-H322M; first compound 0.253 µM) of 1.21 and a relative viability (NCI-H322M; first compound 0.8 µM) of 1.14. It also gave a relative viability (NCI-H322M; first compound 2.53 µM) of 1.21, a relative viability (NCI-H322M; first compound 8 µM) of 1.11 and a relative viability (NCI-H520; first compound 0.08 µM) of 1.13. It also gave a relative viability (NCI-H520; first compound 0.253 µM) of 1.05, a relative viability (NCI-H520; first compound 0.8 µM) of 1.16 and a relative viability (NCI-H520; first compound 2.53 µM) of 1.07. For the same compound, the relative viability (NCI-H520; first compound 8 µM) was 1.15, the relative viability (NCI-H596; first compound 0.08 µM) was 0.92 and the relative viability (NCI-H596; first compound 0.253 µM) was 0.963. The relative viability (NCI-H596; first compound 0.8 µM) was 0.94, the relative viability (NCI-H596; first compound 2.53 µM) was 0.677 and the relative viability (NCI-H596; first compound 8 µM) was 0.9. For the same compound, the relative viability (NCI-H647; first compound 0.08 µM) was 1.17, the relative viability (NCI-H647; first compound 0.253 µM) was 1.14 and the relative viability (NCI-H647; first compound 0.8 µM) was 0.91. For the same compound, the relative viability (NCI-H647; first compound 2.53 µM) was 0.954, the relative viability (NCI-H647; first compound 8 µM) was 0.837 and the relative viability (NCI-H727; first compound 0.08 µM) was 0.415. It also gave a relative viability (NCI-H727; first compound 0.253 µM) of 0.421, a relative viability (NCI-H727; first compound 0.8 µM) of 0.409 and a relative viability (NCI-H727; first compound 2.53 µM) of 0.409. It also gave a relative viability (NCI-H727; first compound 8 µM) of 0.379, a relative viability (NCI-H838; first compound 0.08 µM) of 1.18 and a relative viability (NCI-H838; first compound 0.253 µM) of 1.12. The relative viability (NCI-H838; first compound 0.8 µM) was 1.01, the relative viability (NCI-H838; first compound 2.53 µM) was 1.11 and the relative viability (NCI-H838; first compound 8 µM) was 1.16. The relative viability (PC-14; first compound 0.08 µM) was 1.04, the relative viability (PC-14; first compound 0.253 µM) was 1 and the relative viability (PC-14; first compound 0.8 µM) was 0.99. The relative viability (PC-14; first compound 2.53 µM) was 1.09, the relative viability (PC-14; first compound 8 µM) was 0.967 and the relative viability (UMC-11; first compound 0.08 µM) was 0.33. The relative viability (UMC-11; first compound 0.253 µM) was 0.318, the relative viability (UMC-11; first compound 0.8 µM) was 0.293 and the relative viability (UMC-11; first compound 2.53 µM) was 0.286. It also gave a relative viability (UMC-11; first compound 8 µM) of 0.239.
